In patent US10837957B2, “In vitro model for pathological or physiologic conditions” (HemoShear, LLC, priority 2012, dated 2020):

What was measured:
[1] = tested on: Tissue Factor Pathway Inhibitor (TFPI); test: Expression of genes relevant to thrombosis in co-cultures under hemodynamic flow; type: cell-based, human; conditions: TNFα stimulation; both endothelial and smooth muscle cells
Excerpt: FIG. 2B depicts a heat map of relative gene expression in endothelial and smooth muscle cells (grown under atheroprone or atheroprotective conditions; see FIG. 2A) of several genes relevant to thrombosis. The relative changes in gene expression of Tissue Factor (F3) and Thrombomodulin (THBD) are presented below the heat map. Atheroprone hemodynamics up-regulate Tissue Factor (F3) compared to atheroprotective shear stress. […] In addition, TNFα stimulation reduces Tissue Factor Pathway Inhibitor (TFPI) in both endothelial and smooth muscle cells.

endothelial cells [2] = test: Static monoculture thrombosis assay (A488-fibrin deposition by confocal microscopy); type: cell-based, human; conditions: static conditions; for fibrin deposition, mean fluorescence intensity: 4 hours
Method: (§1) Human endothelial cells were co-cultured with or without smooth muscle cells in the presence or absence of human-derived, region-specific hemodynamics. Endothelial cells were exposed to TNFα at various concentrations and incubated in human, platelet-free plasma supplemented by ALEXA FLUOR 488 (A488, a fluorescent dye)-labeled fibrinogen. Conversion of A488-fibrinogen to A488-fibrin and deposition on the endothelium was quantified by confocal microscopy.
For static monocultures of endothelial cells, endothelial cells were plated at 100,000 cells/cm^2 on coverslips and allowed to adhere for 24 hours. After 24 hours, media was exchanged with media containing 0 ng/ml, 1 ng/ml, 10 ng/ml, or 20 ng/ml TNFα. Cells were incubated for 4 hours at 37° C. Following incubation, media was removed and cells were washed twice with PBS. Cells were then incubated an additional 15 minutes at 37° C. with Human Platelet Free Plasma (PFP) supplemented with 37.5 μg/mL ALEXA-488 human fibrinogen, 20 μg/mL corn trypsin inhibitor, and 10 mM calcium. This protocol is depicted in FIG. 1A. After 15 minutes, the cells were fixed with 4% paraformaldehyde (PFA) and stained with 0.5 nM SYT083 (a fluorescent nucleic acid stain) in 10 mM Tris, 1 mM EDTA buffer for 45 minutes. Coverslips were mounted onto coverglass using FLUOROMOUNT-G (a mounting agent) and imaged.

[3] = tested on: Endothelial/smooth muscle cell co-cultures; test: Coculture thrombosis assay with shear stress, Protocol A (fibrin deposition); type: cell-based, human
Method: as §1
Following 24 hours of shear stress application (atheroprone or atheroprotective), the media was supplemented with TNFα at a concentration of 0.05 ng/mL or 0.10 ng/mL and shear stress was continued for an additional 24 hours, as shown in FIG. 3A. Media was then removed from both the upper and lower chambers, and both the endothelial cells and smooth muscle cells are washed twice with PBS. Endothelial cells were then incubated for 15 minutes at 37° C. with PFP supplemented with 37.5 μg/mL ALEXA-488 human fibrinogen, 20 μg/mL corn trypsin inhibitor, and 10 mM calcium, and fixed and imaged as described above for monocultures.

endothelial cells [4] = test: TNFα in hemodynamic environment: inflammatory gene expression; type: cell-based; conditions: 0.1-1 ng/ml TNFα, atheroprone hemodynamic forces; not seen at same levels in static
Method: Following 24 hours of shear stress preconditioning with atheroprotective or atheroprone hemodynamic forces, TNFα was added to upper volume (containing the endothelial cells) at a concentration of 0.05-1 ng/ml (see FIG. 5). This concentration of TNFα is similar to plasma concentrations of TNFα observed in patients with cardiovascular disease. Shear stress application was continued for an additional 24 hours in the presence of TNFα.

[5] = tested on: endothelial cell/smooth muscle cell co-cultures; test: HDL in hemodynamic environment; type: cell-based; conditions: HDL 45 μg/ml or 90 μg/ml, hemodynamic shear stress
Method: An additional component of plasma cholesterol distinct from nLDL or oxLDL is HDL. […] HDL was then added to the upper volume at a concentration of 45-1,000 μg/ml. This broad range reflects the broad range of HDL concentrations that can exist within human patients. HDL concentrations in individuals at risk for vascular disease are generally less than about 300 μg/ml, while HDL concentrations in healthy individuals range from greater than about 300 μg/ml up to about 2,000 μg/ml in healthy exercising patients.
In additional experiments, endothelial cell/smooth muscle cell co-cultures plated as described above were preconditioned for 16 hours with hemodynamic shear stress. From hours 16-24 the cells were additionally primed with 0.05 ng/ml TNFα and 50 μg/ml of oxLDL (compared to a vehicle control containing 50 μg/ml nLDL) in the upper volume. At 24 hours, 45 μg/ml or 90 μg/ml HDL was added to the media in the upper volume and hemodynamic shear stress was continued for the next 24 hours (hours 24-48).

[6] = tested on: endothelial cells and smooth muscle cells; test: oxLDL in hemodynamic environment: gene array, gene, protein and cytokine expression in co-culture; type: cell-based; conditions: for number of genes regulated as compared to nLDL: atheroprone, 50 μg/ml oxLDL vs 50 μg/ml nLDL
Method: Following 16-24 hours of shear stress preconditioning with atheroprotective or atheroprone hemodynamic forces, oxLDL was added to upper volume (containing the endothelial cells) at a concentration of 10-50 μg/ml (FIG. 5). In devices not receiving oxLDL, nLDL was added to the upper volume at the same concentration and used as a vehicle control. This concentration of oxLDL is similar to plasma concentrations of oxLDL observed in patients with cardiovascular disease. Shear stress application was continued for an additional 24 hours in the presence of oxLDL.
(§2) Five different donor pairs were used to analyze the oxLDL (50 μg/ml) response compared to nLDL (50 μg/ml) within the atheroprone hemodynamic environment in endothelial cells and smooth muscle cells. […] Significant genes were considered using an FDR of 0.01. Gene expression results are reported as the relative expression of the gene as compared to the expression of β-2 microglobulin (B2M). Protein expression results are reported as the relative expression of the protein as compared to the expression of actin. Activity of NFκB was assessed using an adenovirus NFκB-luciferase (Ad-NFKB-luc) reporter infected in ECs and SMCs.

NFκB = test: Adenovirus NFκB-luciferase reporter in ECs and SMCs; type: cell-based
Method: as §2

endothelial cells [7] = test: oxLDL and TNFα in hemodynamic environment: RT-PCR gene expression; type: cell-based; conditions: atheroprone
Method: To emulate more inflammatory stages of atherosclerosis, it is desirable to combine multiple circulating factors to better emulate the complexity found within human blood vessels. […] The media in the upper volume was then exchanged for media containing 0.05 ng/ml TNFα and 50 μg/ml of oxLDL. Media containing only 50 μg/ml of nLDL was used as a control.
Following 24 hours of shear stress preconditioning with atheroprotective or atheroprone hemodynamic forces, 50 μg/ml of oxLDL and 0.05 ng/ml of TNFα were added to upper volume (containing the endothelial cells). This concentration of TNFα is similar to plasma concentrations of TNFα observed in patients with cardiovascular disease. In devices not receiving oxLDL, nLDL was added to the upper volume at the same concentration and used as a vehicle control. Shear stress application was continued for an additional 24 hours in the presence of TNF-a and oxLDL (see FIG. 5). Gene expression analysis was performed using RT-PCR.

[8] = tested on: endothelial cells and smooth muscle cells; test: Aldosterone in hemodynamic environment: gene array analysis; type: cell-based; conditions: aldosterone 1 mM vs vehicle; healthy and atheroprone
Method: Aldosterone at a concentration of 1 mM or a vehicle control (VEH) was added to the upper volume and RNA was collected for gene array analysis.

cytochrome p450 1A/1B = test: Cytochrome p450 activity assay (P450-GLO) in hepatocytes, induction
Method: (§3) Porous membrane segments roughly 2 cm^2 in area were excised and transferred to standard 24-well plates alongside corresponding static cultures. The cells were incubated with 500 μl of hepatocyte media containing substrates from commercially available P450-GLO kits (kits for luminescent cytochrome p450 assays) at the manufacturer-recommended concentrations. After 4 hours, the media was transferred to 96-well plates and assayed for luminescent metabolites to reflect cytochrome p450 activity as per the manufacturer protocol.
(§4) After 48 hours, on day 7, segments of the porous membrane from the devices containing hepatocytes cultured under controlled hemodynamics that were roughly 2.0 cm^2 in area were excised and transferred to standard 24-well plates and treated with substrates for the Cyp p450 enzymes in parallel to corresponding static cultures treated with the different agents. Cytochrome p450 assays were done on day 7 using commercially available P450-GLO kits. After 4 hours the media was transferred to 96-well plates and assayed for luminescent metabolites to reflect cytochrome p450 activity.

primary rat hepatocytes = test: Toxicity to hepatocytes cultured under controlled flow; conditions: 50 μM dexamethasone
Method: Cytochrome p450 assays were done on day 7 using commercially available P450-GLO kits. After 4 hours the media was transferred to 96-well plates and assayed for luminescent metabolites to reflect cytochrome p450 activity.

cytochrome p450 3A = test: Cytochrome p450 activity assay (P450-GLO) in hepatocytes, induction; type: cell-based, rat; conditions: controlled hemodynamics 0.6 dynes/cm^2, dexamethasone 02.5 μM, 48 hours, day 7; DMSO 11.64
Method: as §3, §4

hepatocytes [9] = test: In vitro fatty liver model: lipid accumulation (Nile red, Oil Red O, total triglycerides); type: cell-based, rat; conditions: 1.5 μM pioglitazone, high insulin/glucose media
Method: Samples were then blocked in 5% goat serum, 0.2% blotting grade non-fat dry milk blocker, and 1% BSA in PBS for 45 minutes. The samples were then washed thrice in 0.1% BSA in PBS and incubated with 1:5000 dilution of Nile red (1 mM stock), 1:1000 DRAQS (a fluorescent DNA dye; Cell Signalling), 1:500 ALEXA FLUOR 488 conjugated phalloidin (Life Technologies), and 1% BSA in PBS for thirty minutes and protected from light. The samples were washed in 0.1% BSA in PBS thrice for five minutes each and mounted on glass cover slips using PROLONG GOLD antifade mounting media (an antifade reagent; Invitrogen). The samples were imaged on a Nikon C1+ Confocal System microscope. Oil Red O Assay: Accumulation of intracellular lipids within hepatocytes was assessed by adapting and modifying a commercially available Steatosis Colorimetric Assay Kit (Cayman Chemical). At the end of the culture period, 2 cm^2 sized porous membrane segments containing the hepatocytes from devices under healthy and steatotic conditions were washed with PBS and fixed in 4% paraformaldehyde for 30 minutes. […] The solution was then transferred to clear 96-well plates and absorbance was read at 490-520 nm in a spectrophotometer. Measurement of Total Triglycerides: Triglyceride content was assessed using a commercially available colorimetric assay kit (Cayman Triglyceride Colorimetric Assay Kit, Cat #10010303). […]

hepatocytes [10] = test: In vitro fatty liver model: RT-PCR of metabolic and lipid pathway genes; type: cell-based, rat; conditions: 1.5 μM pioglitazone, high insulin/glucose disease conditions
[11] = tested on: endothelial cells and smooth muscle cells; test: ANG2 in hemodynamic environment: gene array analysis; type: cell-based; conditions: ANG2 10 nM (10.46 ng/ml) vs DMSO vehicle; healthy and atheroprone
Method: ANG2 at a concentration of 10 nM (10.46 ng/ml) or a DMSO vehicle control (VEH) was added to the upper volume and RNA was collected for gene array analysis.

[12] = atheroprone hemodynamic environment

Compound: tumor necrosis factor-α [TNFα]
- Tissue Factor Pathway Inhibitor (TFPI) expression [1]: reduces
- fibrin deposition, mean fluorescence intensity (endothelial cells [2]; 1 ng/ml TNFα): 1.17e5
- fibrin deposition, mean fluorescence intensity (endothelial cells [2]; 10 ng/ml TNFα): 2.69e7
- fibrin deposition, mean fluorescence intensity (endothelial cells [2]; 20 ng/ml TNFα): 3.61e7
- TNFα concentration needed for activation relative to physiological levels (endothelial cells [2]): approximately 200 fold
- fibrin deposition, mean fluorescence intensity ([3]; 0.05 ng/ml TNFα, 24 hours, atheroprone hemodynamics from internal carotid sinus, Protocol A): 1.9e7
- fold lower levels of TNFα inducing fibrin deposition as compared to static cultures ([3]; atheroprone hemodynamic priming): 100- to 200 fold
- inflammatory response (E-Selectin, ICAM, VCAM, IL8 expression) (endothelial cells [4]): induced an inflammatory response

Compound: high-density lipoprotein [HDL]
- activation of pro-inflammatory genes and proteins [5]: blocking activation
- atheroprotective genes [5]: activates

Compound: oxidized low-density lipoprotein [oxLDL]
- atheroprotective signaling (eNOS and KLF2) gene expression ([6]; atheroprone conditions): reduced atheroprotective signaling
- HO-1 and ATF3 gene expression ([6]; atheroprone conditions compared to traditional static, oxLDL 10-50 μg/ml vs nLDL): activates these genes at much higher levels
- inflammatory genes IL8 and E-Selectin (SELE) expression ([6]; atheroprone conditions, not regulated in static cultures): activate
- VCAM-1 protein expression [6, 12]: elevated
- phosphorylation of eNOS [6, 12]: reduced phosphorylation
- secreted cytokines IL6, IL8 and MCP-1 [6, 12]: increased levels
- number of genes regulated as compared to nLDL ([6]; endothelial cells, 5 donors): 688 genes
- number of genes regulated as compared to nLDL ([6]; smooth muscle cells, 4 donors): 304 genes
- NFκB activity (luciferase reporter) (NFκB; endothelial cells, atheroprone hemodynamics): further heightened
- NFκB signaling (luciferase reporter) (NFκB; smooth muscle cells, oxLDL added to upper volume only): elevated NFKB signaling
- eNOS gene expression (NOS3) (endothelial cells [7]; 50 μg/ml oxLDL): reduced
- E-Selectin (SELE) gene expression (endothelial cells [7]; 50 μg/ml oxLDL vs nLDL control): higher levels

Compound: C[C@]12CCC(=O)C=C1CC[C@@H]1[C@@H]2[C@@H](O)C[C@]2(C=O)[C@@H](C(=O)CO)CC[C@@H]12 [aldosterone, Aldosterone]
- inflammatory genes (gene array) [8]: upregulated

Compound: Cc1ccc2cc3c(ccc4ccccc43)c3c2c1CC3 [3-MC, 3-Methyl Cholanthrene]
- fold lower levels giving induction responses under controlled hemodynamics (cytochrome p450 1A/1B; compared to static (1 μM static, 0.1 μM controlled hemodynamics)): 10 fold
- 1A/1B response to inducer (cytochrome p450 activity normalized to ATP) (cytochrome p450 1A/1B; controlled hemodynamics 0.6 dynes/cm^2, 3-MC 0.1 μM, 48 hours, day 7, DMSO 4.87): 133.06

Compound: C[C@@H]1C[C@H]2[C@@H]3CCC4=CC(=O)C=C[C@]4(C)[C@@]3(F)[C@@H](O)C[C@]2(C)[C@@]1(O)C(=O)CO [Dexamethasone, dexamethasone]
- toxicity (primary rat hepatocytes): toxic
- 3A response to inducer (cytochrome p450 activity normalized to ATP) (cytochrome p450 3A): 57.53

Compound: CCc1ccc(CCOc2ccc(CC3SC(=O)NC3=O)cc2)nc1 (stereo not drawn) [Pioglitazone, pioglitazone]
- total triglyceride content of hepatocytes (hepatocytes [9]): reduced
- expression of metabolic genes such as Cyp3A2 (hepatocytes [10]): restored

Compound: Angiotensin II (DRVYIHPF; Angiotensin-2; UniProt P01019 25-32, looked up) [ANG2]
- inflammatory genes (gene array) [11]: upregulated
